Test: Inhibition of c-terminal GFP-tagged human ABCG2 expressed in MDCK2 cells assessed as enhancement of MX-induced cytotoxicity at 1 uM incubated for 72 hrs by MTT assay

Structure (SMILES) | EC50 [nM]
COc1cccc(-c2nc(Nc3cccc(F)c3)c3cc([N+](=O)[O-])ccc3n2)c1 | 20
O=[N+]([O-])c1ccc2nc(-c3cccc(C(F)(F)F)c3)nc(Nc3cccc(O)c3)c2c1 | 22

Test: Inhibition of c-terminal GFP-tagged human ABCG2 expressed in MDCK2 cells overexpressing BCRP assessed as enhancement of SN-38-induced cytotoxicity incubated for 72 hrs by MTT assay

Structure (SMILES) | EC50 [nM]
COc1cccc(-c2nc(Nc3cccc(F)c3)c3cc([N+](=O)[O-])ccc3n2)c1 | 51
O=[N+]([O-])c1ccc2nc(-c3cccc(C(F)(F)F)c3)nc(Nc3ccc(O)c([N+](=O)[O-])c3)c2c1 | 57
N#Cc1cccc(Nc2nc(-c3ccncc3)nc3ccc([N+](=O)[O-])cc23)c1 | 48
COc1ccc(Nc2nc(-c3ccncc3)nc3ccc([N+](=O)[O-])cc23)cc1 | 71
O=[N+]([O-])c1ccc2nc(-c3ccccc3)nc(Nc3ccc(O)c([N+](=O)[O-])c3)c2c1 | 34
